From patent publication US20230135894A1, “MK2 DEGRADERS AND USES THEREOF” (Kymera Therapeutics, Inc., priority 2021, published 2023) come the findings set out here.

Assay [1] deals with T1, MK2 (Homo sapiens, UniProt P49137). Description: MK2 degradation in human THP-1 monocytic cells (MSD, 24 h). It is filed as cell-based. As to conditions: for Dmax: THP-1, THP-1 cells; for DC50 / MK2 MSD THP-1 degradation 24 h GMean External Abs DC50: THP-1 cells; for DC50: read-out: MK2 MSD THP-1 degradation 24 h GMean External Abs DC50. On the set-up: endogenous in cells; key to MK2 MSD THP-1 degradation 24 h GMean External Abs DC50: A (<0.001 μM); B (0.001-0.01 μM); C (0.01-0.1 μM); D (>0.1 μM); —: “-”=not tested or inactive. In short, it runs like this:
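Readout: residual MK2 protein in THP-1 lysates, measured by MSD electrochemiluminescence sandwich assay after 24 h compound exposure (≤10-point serial dilutions, 0.1% DMSO, 37 °C). Curves normalised between lysis-buffer and DMSO-cell signals; DC50 by 4-parameter logistic fit.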

The target in assay [2] is T1, MK2. The assay can be described thus: MK2 degradation in human SW1353 cells (MSD, 24 h). Format: cell-based. On the set-up: endogenous in cells; host or cells: SW-1353 (ATCC HTB-94); key to MK2 MSD SW1353 degradation 24 h GMean External Abs DC50: A (<0.001 μM); B (0.001-0.01 μM); C (0.01-0.1 μM); D (>0.1 μM); —: “-”=not tested or inactive; key to MK2 MSD SW 1353 24 h Dmax %: —: “-”=not tested or inactive. As to conditions: for Dmax: read-out: MK2 MSD SW 1353 24 h Dmax %; for DC50: read-out: MK2 MSD SW1353 degradation 24 h GMean External Abs DC50. In short, it runs like this: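 DC50 derived by 4-parameter logistic fit, with DMSO-treated signal as top and lysis-buffer signal as bottom. Remaining MK2 was measured by MSD electrochemiluminescent sandwich assay in RIPA lysates of human SW1353 cells exposed for 24 h at 37 °C to serially diluted compound in 0.1% DMSO.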

T1 sequence (P49137 whole entry): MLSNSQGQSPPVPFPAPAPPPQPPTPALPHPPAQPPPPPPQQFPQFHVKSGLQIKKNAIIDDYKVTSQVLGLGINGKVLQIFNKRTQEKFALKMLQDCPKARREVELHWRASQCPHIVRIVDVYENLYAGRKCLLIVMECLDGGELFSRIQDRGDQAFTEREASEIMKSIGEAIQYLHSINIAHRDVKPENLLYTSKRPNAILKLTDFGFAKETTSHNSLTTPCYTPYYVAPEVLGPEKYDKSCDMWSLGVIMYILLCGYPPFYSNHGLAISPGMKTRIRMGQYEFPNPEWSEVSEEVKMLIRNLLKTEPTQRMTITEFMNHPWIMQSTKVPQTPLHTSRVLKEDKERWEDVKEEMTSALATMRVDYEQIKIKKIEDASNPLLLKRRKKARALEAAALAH

Consider `C[C@@H]1CNc2c(sc3ccc4nc(-c5ccc(N6CCN(CCCc7cccc8c7n(C)c(=O)n8C7CCC(=O)NC7=O)CC6)cc5)ccc4c23)C(=O)N1` (stereo partly drawn) [Compound I-172], for which, in assay [1], the Dmax was greater than 75% and the DC50 is less than 0.001 µM. For the same molecule, in assay [2], the Dmax was greater than 75% and the DC50 is less than 0.001 µM.
As for `C[C@@H]1CNc2c(sc3ccc4nc(-c5ccc(N6CCN(CCCc7ccc8c(c7)n(C)c(=O)n8C7CCC(=O)NC7=O)CC6)cc5)ccc4c23)C(=O)N1` (stereo partly drawn) [Compound I-173], the Dmax in assay [1] and in assay [2] was greater than 75% in each case. The DC50 in assay [1] and in assay [2] was less than 0.001 µM in each case.
In the case of `C[C@@H]1CNc2c(sc3ccc4nc(-c5ccc(N6CCN(CCCCCc7ccc8c(c7)n(C)c(=O)n8C7CCC(=O)NC7=O)CC6)cc5)ccc4c23)C(=O)N1` (stereo partly drawn) [Compound I-174], in assay [1], the Dmax was greater than 75% and the DC50 is less than 0.001 µM. Also, in assay [2], the Dmax is greater than 75% and the DC50 was less than 0.001 µM.
For `C[C@@H]1CNc2c(sc3ccc4nc(-c5ccc(N6CCN(CCCCCCCCc7ccc8c(c7)n(C)c(=O)n8C7CCC(=O)NC7=O)CC6)cc5)ccc4c23)C(=O)N1` (stereo partly drawn) [Compound I-175], the Dmax in assay [1] and in assay [2] was greater than 75% throughout. Further, the DC50 in assay [1] and in assay [2] was 0.001 to 0.01 µM in each case.
With `C[C@@H]1CNc2c(sc3ccc4nc(-c5cccc(N6CCN(CCCCCCCCc7ccc8c(c7)n(C)c(=O)n8C7CCC(=O)NC7=O)CC6)c5)ccc4c23)C(=O)N1` (stereo partly drawn) [Compound I-176], in assay [1], the Dmax was in the range of 50 to 75% and the DC50 was in the range of 0.001 to 0.01 µM. Besides, in assay [2], the Dmax is greater than 75% and the DC50 was 0.001 to 0.01 µM.
Turning to `C[C@@H]1CNc2c(sc3ccc4nc(-c5cccc(N6CCN(CCCCCCCCCCc7cccc8c7n(C)c(=O)n8C7CCC(=O)NC7=O)CC6)c5)ccc4c23)C(=O)N1` (stereo partly drawn) [Compound I-177], in assay [1], the Dmax is greater than 75% and the DC50 was 0.01 to 0.1 µM. Also, in assay [2], the Dmax was greater than 75% and the DC50 lay in the range of 0.01 to 0.1 µM.
For `C[C@@H]1CNc2c(sc3ccc4nc(-c5cccc(N6CCN(CCCCCCCCCCc7ccc8c(c7)n(C)c(=O)n8C7CCC(=O)NC7=O)CC6)c5)ccc4c23)C(=O)N1` (stereo partly drawn) [Compound I-178], in assay [1], the maximal degradation (Dmax) was greater than 75% and the DC50 was 0.01 to 0.1 µM. For the same molecule, in assay [2], the Dmax is greater than 75% and the DC50 was in the range of 0.01 to 0.1 µM.
For `Cn1c(=O)n(C2CCC(=O)NC2=O)c2cccc(CCN3CCN(c4ccc(-c5cc(-c6cc7c([nH]6)C6(CC6)CNC7=O)ccn5)c(F)c4)CC3)c21` (stereo not drawn) [Compound I-179], in assay [1], the Dmax is greater than 75% and the “MK2 MSD THP-1 degradation 24 h GMean External Abs DC50” value is listed as “—”. Besides, in assay [2], the “MK2 MSD SW1353 degradation 24 h GMean External Abs DC50” value is “—” and the Dmax is greater than 75%.
For the molecule `COc1cc(-c2ccc3c(ccc4sc5c(c43)NC[C@@H](C)NC5=O)n2)c(F)cc1N1CCN(CC2CCN(c3ccc4c(c3)n(C)c(=O)n4C3CCC(=O)NC3=O)CC2)CC1` (stereo partly drawn) [Compound I-180], the Dmax in assay [1] and in assay [2] was greater than 75% throughout.
`C[C@@H]1CNc2c(sc3ccc4nc(N5C[C@H]6C[C@@H]5CN6CC5CCN(c6cccc7c6n(C)c(=O)n7C6CCC(=O)NC6=O)CC5)ccc4c23)C(=O)N1` (stereo partly drawn) [Compound I-182]: in assay [1], the Dmax is less than 50% and the “MK2 MSD THP-1 degradation 24 h GMean External Abs DC50” value is reported as “—”. Further, in assay [2], the “MK2 MSD SW1353 degradation 24 h GMean External Abs DC50” value is reported as “—” and the Dmax was less than 50%.
Consider `C[C@@H]1CNc2c(sc3ccc4nc(-c5ccc(N6CCN(CCCCOc7ccc(C8CCC(=O)NC8=O)cc7)CC6)nc5)ccc4c23)C(=O)N1` (stereo partly drawn) [Compound I-183], for which, in assay [1], the Dmax is greater than 75% and the “MK2 MSD THP-1 degradation 24 h GMean External Abs DC50” value is listed as “—”. Besides, in assay [2], the “MK2 MSD SW1353 degradation 24 h GMean External Abs DC50” value is “—” and the Dmax is greater than 75%.
On to `C[C@@H]1CNc2c(sc3ccc4nc(N5CCN(CC6CCN(c7ccc(-c8ccc9c(c8)n(C)c(=O)n9C8CCC(=O)NC8=O)cc7)CC6)CC5)ccc4c23)C(=O)N1` (stereo partly drawn) [Compound I-184], for which, in assay [1], the Dmax is greater than 75% and the “MK2 MSD THP-1 degradation 24 h GMean External Abs DC50” value is recorded as “—”. Besides, in assay [2], the “MK2 MSD SW1353 degradation 24 h GMean External Abs DC50” value is “—” and the maximal degradation (Dmax) was greater than 75%.
Consider `C[C@@H]1CNc2c(sc3ccc4nc(N5CCC6(CC5)CC(N5CCN(c7ccc8c(c7)n(C)c(=O)n8C7CCC(=O)NC7=O)CC5)C6)ccc4c23)C(=O)N1` (stereo partly drawn) [Compound I-185], for which, in assay [1], the Dmax is greater than 75% and the “MK2 MSD THP-1 degradation 24 h GMean External Abs DC50” value is reported as “—”. In assay [2], the “MK2 MSD SW1353 degradation 24 h GMean External Abs DC50” value is reported as “—” and the Dmax is greater than 75%.
In the case of `C#Cc1cc(-c2ccc3c(ccc4sc5c(c43)NC[C@@H](C)NC5=O)n2)cc(N2CCN(CC3CCN(c4ccc5c(c4)n(C)c(=O)n5C4CCC(=O)NC4=O)CC3)CC2)c1` (stereo partly drawn) [Compound I-186], in assay [1], the Dmax is greater than 75% and the “MK2 MSD THP-1 degradation 24 h GMean External Abs DC50” value is reported as “—”. Also, in assay [2], the “MK2 MSD SW1353 degradation 24 h GMean External Abs DC50” value was “—” and the Dmax is greater than 75%.
On to `C[C@@H]1CNc2c(sc3ccc4nc(N5C[C@@H]6C[C@H]5CN6CC5CCN(c6cccc7c6n(C)c(=O)n7C6CCC(=O)NC6=O)CC5)ccc4c23)C(=O)N1` (stereo partly drawn) [Compound I-187], for which, in assay [1], the Dmax is less than 50% and the 50% degradation concentration (DC50) was greater than 0.1 µM. In addition, in assay [2], the maximal degradation (Dmax) was less than 50% and the DC50 is greater than 0.1 µM.
`O=C1CCN(c2cncc3c(N4CC(CN5CCN(c6ccc(-c7cc(-c8cc9c([nH]8)C8(CC8)CNC9=O)ccn7)cc6)CC5)C4)cccc23)C(=O)N1` [Compound I-188]: the Dmax in assay [1] and in assay [2] was greater than 75% each time. Further, the DC50 in assay [1] and in assay [2] was 0.001 to 0.01 µM throughout.
Turning to `Cn1c(=O)n(C2CCC(=O)NC2=O)c2ccc(N3CC(CN4CCN(c5ccc(-c6cc(-c7cc8c([nH]7)C7(CC7)CNC8=O)ccn6)cc5)CC4)C3)cc21` (stereo not drawn) [Compound I-189], in assay [1], the Dmax is greater than 75% and the DC50 was less than 0.001 µM. Further, in assay [2], the maximal degradation (Dmax) is greater than 75% and the DC50 is less than 0.001 µM.
Consider `Cn1c(=O)n(C2CCC(=O)NC2=O)c2cccc(N3CC(CN4CCN(c5ccc(-c6cc(-c7cc8c([nH]7)C7(CC7)CNC8=O)ccn6)cc5)CC4)C3)c21` (stereo not drawn) [Compound I-190], for which the Dmax in assay [1] and in assay [2] was greater than 75% each time. Besides, the DC50 in assay [1] and in assay [2] was less than 0.001 µM each time.
`Cn1c(=O)n(C2CCC(=O)NC2=O)c2cccc(CCCN3CCN(c4ccc(-c5cc(-c6cc7c([nH]6)C6(CCCC6)CNC7=O)ccn5)cc4)CC3)c21` (stereo not drawn) [Compound I-191]: in assay [1], the greatest degradation seen (Dmax) was in the range of 50 to 75% and the 50% degradation concentration (DC50) lay within 0.01 to 0.1 µM. Further, in assay [2], the Dmax is greater than 75% and the DC50 was in the range of 0.001 to 0.01 µM.
As for `Cn1c(=O)n(C2CCC(=O)NC2=O)c2ccc(N3CCC(CN4CCN(c5ccc(-c6cc(-c7cc8c([nH]7)C7(CCCC7)CNC8=O)ccn6)cc5)CC4)CC3)cc21` (stereo not drawn) [Compound I-192], in assay [1], the Dmax was greater than 75% and the DC50 was less than 0.001 µM. Moreover, in assay [2], the Dmax was greater than 75% and the DC50 was less than 0.001 µM.
As for `Cn1c(=O)n(C2CCC(=O)NC2=O)c2ccc(N3CCC(CN4CCN(c5cc(-c6cc(-c7cc8c([nH]7)CCNC8=O)ccn6)cc(C6CCCC6)c5)CC4)CC3)cc21` (stereo not drawn) [Compound I-193], in assay [1], the Dmax is less than 50% and the DC50 is greater than 0.1 µM. Further, in assay [2], the “MK2 MSD SW 1353 24 h Dmax %” value is given as “—” and the DC50 was greater than 0.1 µM.
Regarding `Cc1cc(-c2cc(-c3cc4c([nH]3)C3(CC3)CNC4=O)ccn2)cc(C)c1N1CCN(CC2CCN(c3ccc4c(c3)n(C)c(=O)n4C3CCC(=O)NC3=O)CC2)CC1` (stereo not drawn) [Compound I-194], the Dmax in assay [1] and in assay [2] was greater than 75% in each case. The DC50 in assay [1] and in assay [2] was less than 0.001 µM in each case.
Consider `C[C@@H]1CNc2c(sc3ccc4nc(-c5ccc(N6CCN(C[C@H]7CCN(c8ccc9c(c8)n(C)c(=O)n9C8CCC(=O)NC8=O)C7)CC6)cc5)ccc4c23)C(=O)N1` (stereo partly drawn) [Compound I-195], for which, in assay [1], the greatest degradation seen (Dmax) is greater than 75% and the DC50 is less than 0.001 µM. Besides, in assay [2], the Dmax was greater than 75% and the DC50 was less than 0.001 µM.
For the molecule `C[C@@H]1CNc2c(sc3ccc4nc(N5CCN(CC6CCN(c7cccc8c7n(C)c(=O)n8C7CCC(=O)NC7=O)CC6)CC5)ccc4c23)C(=O)N1` (stereo partly drawn) [Compound I-196], in assay [1], the Dmax was greater than 75% and the DC50 fell in the range of 0.001 to 0.01 µM. Besides, in assay [2], the “MK2 MSD SW 1353 24 h Dmax %” value is “—” and the “MK2 MSD SW1353 degradation 24 h GMean External Abs DC50” value is “—”.
For `O=C1CCN(c2cncc3c(N4CC(CN5CCN(c6ccc(-c7cc(-c8cc9c([nH]8)CCNC9=O)ccn7)cc6)CC5)C4)cccc23)C(=O)N1` [Compound I-197], in assay [1], the maximal degradation (Dmax) is greater than 75% and the DC50 fell in the range of 0.01 to 0.1 µM. For the same molecule, in assay [2], the “MK2 MSD SW 1353 24 h Dmax %” value is on record as “—” and the “MK2 MSD SW1353 degradation 24 h GMean External Abs DC50” value is “—”.
For `O=C1CCN(c2cncc3c(N4CCN(CC5CCN(c6ccc(-c7cc(-c8cc9c([nH]8)CCNC9=O)ccn7)cc6)CC5)CC4)cccc23)C(=O)N1` [Compound I-198], in assay [1], the Dmax was greater than 75% and the DC50 lay in the range of 0.01 to 0.1 µM. Besides, in assay [2], the “MK2 MSD SW 1353 24 h Dmax %” value is “—” and the “MK2 MSD SW1353 degradation 24 h GMean External Abs DC50” value is “—”.

The term Dmax denotes the greatest extent of degradation seen. Usually DC50 stands for the concentration giving 50% degradation.
